Columns and labels:
[1] = tested on: pain or itch; experiment: Topical EETs in the methods of the invention (comparison of EET regioisomers); format: in vivo; details: topical administration
[2] = Metabolic stability; format: in vitro ADME
[3] = target: T1, sEH (Homo sapiens, UniProt P34913); experiment: Inhibition of sEH activity; format: biochemical
T1 sequence (P34913 1-555): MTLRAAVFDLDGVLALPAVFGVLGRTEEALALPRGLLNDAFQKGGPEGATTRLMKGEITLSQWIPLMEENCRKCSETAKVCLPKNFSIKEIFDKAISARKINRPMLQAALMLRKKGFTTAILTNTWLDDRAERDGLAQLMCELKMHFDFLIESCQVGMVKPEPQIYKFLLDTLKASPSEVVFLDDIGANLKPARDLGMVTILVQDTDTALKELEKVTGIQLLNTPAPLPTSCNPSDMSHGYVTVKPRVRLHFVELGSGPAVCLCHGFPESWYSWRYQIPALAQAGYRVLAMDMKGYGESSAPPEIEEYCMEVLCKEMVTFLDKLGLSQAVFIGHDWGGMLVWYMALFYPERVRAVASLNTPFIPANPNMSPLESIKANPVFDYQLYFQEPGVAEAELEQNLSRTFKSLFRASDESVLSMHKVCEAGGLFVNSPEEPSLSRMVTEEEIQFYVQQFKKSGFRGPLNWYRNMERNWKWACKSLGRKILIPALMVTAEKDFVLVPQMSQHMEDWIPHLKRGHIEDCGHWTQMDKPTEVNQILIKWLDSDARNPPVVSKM
From the text: Any of a number of standard assays for determining epoxide hydrolase activity can be used to determine inhibition of sEH. For example, suitable assays are described in Gill, et al., Anal Biochem 131, 273-282 (1983); and Borhan, et al., Analytical Biochemistry 231, 188-200 (1995)). Suitable in vitro assays are described in Zeldin et al., J Biol. Chem. 268:6402-6407 (1993). Suitable in vivo assays are described in Zeldin et al., Arch Biochem Biophys 330:87-96 (1996). […]
The enzyme also can be detected based on the binding of specific ligands to the catalytic site which either immobilize the enzyme or label it with a probe such as dansyl, fluoracein, luciferase, green fluorescent protein or other reagent. […] The enzyme also can be detected based on the generation of fluorescent products following the hydrolysis of the epoxide. […]

[4] = tested on: LPS-elicited mechanical allodynia; experiment: LPS-elicited mechanical allodynia, von Frey filaments; format: in vivo, rat; details: topical in vehicle cream; 50 mg/kg; LPS 10 μg; FIG. 3
Description: For the quantification of mechanical allodynia, a set of von Frey filaments with different diameters corresponding to different quantities of force applied were employed. The baseline responses of animals were first determined and than LPS was injected in the hind paw. Responses were measured 1 hr and 2 hrs after LPS injection. Eight animals per group were used. Rats' paws were stimulated with filaments of increasing diameter three times. The diameter of filaments that rats withdraw their paws were recorded.

[5] = tested on: LPS-induced thermal hyperalgesia; experiment: LPS-induced thermal hyperalgesia, hind paw withdrawal latency test (Hargreaves); format: in vivo, rat; details: for LPS-induced thermal hyperalgesia, percent thermal withdrawal latency (TWL): topical in vehicle cream (Vanicream), 50 mg/kg, LPS 10 μg in hind paw, FIG. 1; for LPS-induced thermal hyperalgesia, dose dependence of percent TWL: topical in vehicle cream, LPS 10 μg, FIG. 2
From the text: The hyperalgesic response with the hind paw withdrawal test is considered to result from a combination of central and peripheral mechanisms (Kannan et al., “Endotoxin-induced local inflammation and hyperalgesia in rats mice, a new model for inflammatory pain,” Pharmacology 66:373-379 (1996)). We used the method of Hargreaves et al., “A new and sensitive method for measuring thermal nociception in cutaneous hyperalgesia”, Pain 32, 77-88 (1988) to quantify the pain response of rats treated with two sEH inhibitors and EETs. Pain was quantified using the hind paw withdrawal latency test. Male Sprague-Dawley rats (Charles River Laboratories, Inc., Wilmington, Mass.) weighing 250-300 g, were used. Animals were individually housed at UC Davis Animal Resource Facility under standard conditions with free access to food and water, and maintained for at least 1 week before the experiments. Each rat was used only once. All the experiments were performed during the daytime between 8.00 and 13.00 h (during the first phase of the light period of the diurnal cycle). Rats were first trained to the experimental chamber in three separate sessions. In the day of the experiments rats' basal response was measured and then they were treated with a neutral cream or compound containing formulated cream preceding an injection with 10 ug of endotoxin (Lipopolysaccharide, “LPS”) or capsaicin in the right hind paw to induce pain response. Pain response was then measured at 30, 60, 120 and 240 minutes post LPS or capsaicin injection. sEHIs were formulated by dissolving them in ethanol and mixing with cream in a ratio of 1:9. Eight animals per group were used. To assess thermal nociceptive responses, a commercially available device modeled after that described by Hargreaves et al., supra, was employed. This device consists of a glass surface upon which the rats are placed individually in Plexiglass cubicles (9×22×25 cm). The glass surface temperature is maintained at either 30.1° C. by a feedback-controlled, under-glass, forced-air heating system. The heating system is driven by a thermocouple attached to the bottom surface of the glass plate. The thermal nociceptive stimulus originates from a focused projection bulb mounted in a stimulus tower that is manually manipulated in a two-dimensional axis to permit the stimulus to be delivered to hind paw of each test subject. A timer is automatically actuated with the light source, and response latency is defined as the time required for the paw to show an abrupt withdrawal. Paw withdrawal is detected by a photodiode motion sensor mounted on the stimulus tower that stops the timer and terminates the stimulus. In all cases, a cut-off of 20 seconds is employed to avoid tissue injury. […]

[6] = tested on: carrageenan-elicited thermal hyperalgesia; experiment: Carrageenan-elicited thermal hyperalgesia, paw withdrawal latency; format: in vivo, rat; details: carrageenan injected into ipsilateral paw at time 0; AUDA-be administered at 20 hours post-exposure; FIG. 6
Description: Animals were exposed to carrageenan at time 0 by injection into ipsilateral paw, the contralateral paw was left untreated. AUDA-be was administered at 20 hours post-exposure to the carrageenan. Filled diamonds are the withdrawal tests of the treated paw. Filled squares are the tests of the untreated paw. To assess thermal nociceptive responses, a commercially available device modeled after that described by Hargreaves et al., supra, was employed. This device consists of a glass surface upon which the rats are placed individually in Plexiglass cubicles (9×22×25 cm). The glass surface temperature is maintained at either 30.1° C. by a feedback-controlled, under-glass, forced-air heating system. The heating system is driven by a thermocouple attached to the bottom surface of the glass plate. The thermal nociceptive stimulus originates from a focused projection bulb mounted in a stimulus tower that is manually manipulated in a two-dimensional axis to permit the stimulus to be delivered to hind paw of each test subject. A timer is automatically actuated with the light source, and response latency is defined as the time required for the paw to show an abrupt withdrawal. Paw withdrawal is detected by a photodiode motion sensor mounted on the stimulus tower that stops the timer and terminates the stimulus. In all cases, a cut-off of 20 seconds is employed to avoid tissue injury. […]

Row | Structure (SMILES) | Effectiveness compared with other EETs in the methods of the invention [1] | Metabolic stability [2] | Activity as an inhibitor of sEH [3] | LPS-elicited mechanical allodynia, percent mechanical withdrawal threshold (MWT) [4] | LPS-induced thermal hyperalgesia, percent thermal withdrawal latency (TWL) [5] | LPS-induced thermal hyperalgesia, dose dependence of percent TWL [5] | Carrageenan-elicited thermal hyperalgesia, thermal withdrawal latency of paw (PWL) [6]
1 | CCCCC/C=C\C[C@H]1O[C@H]1C/C=C\C/C=C\CCCC(=O)O [11,12-EET] | ineffective or less effective than other EETs | – | – | – | – | – | –
2 | CCCCCCCCCCCCNC(=O)NC12CC3CC(CC(C3)C1)C2 [ADU, N-Adamantyl-N′-dodecyl urea] | – | metabolically stable | particularly high activity on sEH | – | – | – | –
3 | CCCCOC(=O)CCCCCCCCCCCNC(=O)NC12CC3CC(CC(C3)C1)C2 [AUDA-be, 12-(3-Adamantan-1-yl-ureido)dodecanoic acid butyl ester] | – | – | – | block LPS-elicited mechanical allodynia | block | block LPS-induced thermal hyperalgesia in a dose dependent way | blocks carrageenan-elicited thermal hyperalgesia
4 | CCOCCOCCOCCCCCNC(=O)NC12CC3CC(CC(C3)C1)C2 [compound 950, Adamantan-1-yl-3-{5-[2-(2-ethoxyethoxy)ethoxy]pentyl}urea] | – | – | – | block LPS-elicited mechanical allodynia | block | block LPS-induced thermal hyperalgesia in a dose dependent way | –

From patent US9119837B2, “Use of sEH inhibitors as analgesics” (The Regents of the University of California, priority 2005, dated 2015)
